Organism: Rattus norvegicus
Assay: DrugMatrix - Regimen: Daily Repeat
Assay type: toxicity, organism-based, Sprague-Dawley
Set-up: regimen Daily Repeat, gender Male, age 6-8 weeks
Settings: in vivo, po, route oral GAVAGE, […]; for ABSOLUTE BASOPHIL / ABSOLUTE EOSINOPHIL / ABSOLUTE LYMPHOCYTE / ABSOLUTE MONOCYTE / ABSOLUTE SEGMENTED NEUTROPHIL / BASOPHIL / EOSINOPHIL / ERYTHROCYTE COUNT / HEMATOCRIT / HEMOGLOBIN / LEUKOCYTE COUNT / LYMPHOCYTE / MEAN CORPUSCULAR HEMOGLOBIN / MEAN CORPUSCULAR HEMOGLOBIN CONCENTRATION / MEAN CORPUSCULAR VOLUME / MONOCYTE / NEUTROPHIL / NUCLEATED RED BLOOD CELLS / PLATELET COUNT: tissue Blood; for ALANINE AMINOTRANSFERASE / ALBUMIN / ALKALINE PHOSPHATASE / ASPARTATE AMINOTRANSFERASE / BLOOD UREA NITROGEN / CARBON DIOXIDE / CHLORIDE / CHOLESTEROL / CREATINE PHOSPHOKINASE / CREATININE / GLUCOSE / LACTATE DEHYDROGENASE / LIPASE / PHOSPHORUS / POTASSIUM / SODIUM / TOTAL BILIRUBIN / TOTAL PROTEIN / URIC ACID: tissue Plasma
[1] = 0 mg/kg, 72 h, dose level Control, time 3 day
[2] = 0 mg/kg, 120 h, dose level Control, time 5 day
[3] = 20 mg/kg, 72 h, dose level Low, time 3 day
[4] = 20 mg/kg, 120 h, dose level Low, time 5 day

Compound: O=c1c(-c2ccc(O)cc2)coc2cc(O)cc(O)c12 [GENISTEIN]
- ABSOLUTE BASOPHIL [1]: 0 CELLS/uL
- ABSOLUTE EOSINOPHIL [1]: 14 CELLS/uL
- ABSOLUTE LYMPHOCYTE [1]: 11144.67 CELLS/uL
- ABSOLUTE MONOCYTE [1]: 22.5 CELLS/uL
- ABSOLUTE SEGMENTED NEUTROPHIL [1]: 535.5 CELLS/uL
- BASOPHIL [1]: 0%
- EOSINOPHIL [1]: 0.17%
- ERYTHROCYTE COUNT [1]: 5.08 x10E6/uL
- HEMATOCRIT [1]: 32.32%
- HEMOGLOBIN [1]: 12.87 G/DL
- LEUKOCYTE COUNT [1]: 11.72 x10E3/uL
- LYMPHOCYTE [1]: 94.67%
- MEAN CORPUSCULAR HEMOGLOBIN [1]: 25.37 pg
- MEAN CORPUSCULAR HEMOGLOBIN CONCENTRATION [1]: 39.85 G/DL
- MEAN CORPUSCULAR VOLUME [1]: 63.58 fL
- MONOCYTE [1]: 0.17%
- NEUTROPHIL [1]: 5%
- NUCLEATED RED BLOOD CELLS [1]: 0 /100WBC
- PLATELET COUNT [1]: 1084 x10E3/uL
- ALANINE AMINOTRANSFERASE [1]: 67.5 u/L
- ALBUMIN [1]: 4.02 G/DL
- ALKALINE PHOSPHATASE [1]: 374.17 u/L
- ASPARTATE AMINOTRANSFERASE [1]: 83.5 u/L
- BLOOD UREA NITROGEN [1]: 14.5 mg/dL
- CARBON DIOXIDE [1]: 30 mmol/L
- CHLORIDE [1]: 100.5 MEQ/L
- CHOLESTEROL [1]: 71.33 mg/dL
- CREATINE PHOSPHOKINASE [1]: 268.33 u/L
- CREATININE [1]: 0.16 mg/dL
- GLUCOSE [1]: 170.5 mg/dL
- LACTATE DEHYDROGENASE [1]: 81.17 u/L
- LIPASE [1]: 16.67 u/L
- PHOSPHORUS [1]: 10.07 mg/dL
- POTASSIUM [1]: 5.03 MEQ/L
- SODIUM [1]: 142.92 MEQ/L
- TOTAL BILIRUBIN [1]: 0.17 mg/dL
- TOTAL PROTEIN [1]: 5.63 G/DL
- URIC ACID [1]: 0.5 mg/dL
- ABSOLUTE BASOPHIL [2]: 0 CELLS/uL
- ABSOLUTE EOSINOPHIL [2]: 37.5 CELLS/uL
- ABSOLUTE LYMPHOCYTE [2]: 8049.5 CELLS/uL
- ABSOLUTE MONOCYTE [2]: 82.83 CELLS/uL
- ABSOLUTE SEGMENTED NEUTROPHIL [2]: 646.83 CELLS/uL
- BASOPHIL [2]: 0%
- EOSINOPHIL [2]: 0.5%
- ERYTHROCYTE COUNT [2]: 5.36 x10E6/uL
- HEMATOCRIT [2]: 33.9%
- HEMOGLOBIN [2]: 13.02 G/DL
- LEUKOCYTE COUNT [2]: 8.82 x10E3/uL
- LYMPHOCYTE [2]: 90.17%
- MEAN CORPUSCULAR HEMOGLOBIN [2]: 24.32 pg
- MEAN CORPUSCULAR HEMOGLOBIN CONCENTRATION [2]: 38.42 G/DL
- MEAN CORPUSCULAR VOLUME [2]: 63.32 fL
- MONOCYTE [2]: 1.17%
- NEUTROPHIL [2]: 8.17%
- NUCLEATED RED BLOOD CELLS [2]: 0.17 /100WBC
- PLATELET COUNT [2]: 1231.5 x10E3/uL
- ALANINE AMINOTRANSFERASE [2]: 62 u/L
- ALBUMIN [2]: 3.97 G/DL
- ALKALINE PHOSPHATASE [2]: 303.67 u/L
- ASPARTATE AMINOTRANSFERASE [2]: 84.5 u/L
- BLOOD UREA NITROGEN [2]: 14.83 mg/dL
- CARBON DIOXIDE [2]: 31.83 mmol/L
- CHLORIDE [2]: 97 MEQ/L
- CHOLESTEROL [2]: 68.83 mg/dL
- CREATINE PHOSPHOKINASE [2]: 411.33 u/L
- CREATININE [2]: 0.16 mg/dL
- GLUCOSE [2]: 170.17 mg/dL
- LACTATE DEHYDROGENASE [2]: 88.5 u/L
- LIPASE [2]: 9.5 u/L
- PHOSPHORUS [2]: 9.98 mg/dL
- POTASSIUM [2]: 5.72 MEQ/L
- SODIUM [2]: 141.62 MEQ/L
- TOTAL BILIRUBIN [2]: 0.1 mg/dL
- TOTAL PROTEIN [2]: 5.67 G/DL
- URIC ACID [2]: 0.52 mg/dL
- ABSOLUTE BASOPHIL [3]: 0 CELLS/uL
- ABSOLUTE EOSINOPHIL [3]: 0 CELLS/uL
- ABSOLUTE LYMPHOCYTE [3]: 8352.33 CELLS/uL
- ABSOLUTE MONOCYTE [3]: 117.33 CELLS/uL
- ABSOLUTE SEGMENTED NEUTROPHIL [3]: 697 CELLS/uL
- BASOPHIL [3]: 0%
- EOSINOPHIL [3]: 0%
- ERYTHROCYTE COUNT [3]: 4.71 x10E6/uL
- HEMATOCRIT [3]: 30.2%
- HEMOGLOBIN [3]: 12.1 G/DL
- LEUKOCYTE COUNT [3]: 9.17 x10E3/uL
- LYMPHOCYTE [3]: 91%
- MEAN CORPUSCULAR HEMOGLOBIN [3]: 25.73 pg
- MEAN CORPUSCULAR HEMOGLOBIN CONCENTRATION [3]: 40.07 G/DL
- MEAN CORPUSCULAR VOLUME [3]: 64.27 fL
- MONOCYTE [3]: 1.33%
- NEUTROPHIL [3]: 7.67%
- NUCLEATED RED BLOOD CELLS [3]: 0 /100WBC
- PLATELET COUNT [3]: 970.67 x10E3/uL
- ALANINE AMINOTRANSFERASE [3]: 69.33 u/L
- ALBUMIN [3]: 3.73 G/DL
- ALKALINE PHOSPHATASE [3]: 415.33 u/L
- ASPARTATE AMINOTRANSFERASE [3]: 87 u/L
- BLOOD UREA NITROGEN [3]: 14 mg/dL
- CARBON DIOXIDE [3]: 31.33 mmol/L
- CHLORIDE [3]: 101.33 MEQ/L
- CHOLESTEROL [3]: 55.33 mg/dL
- CREATINE PHOSPHOKINASE [3]: 256 u/L
- CREATININE [3]: 0.16 mg/dL
- GLUCOSE [3]: 157.33 mg/dL
- LACTATE DEHYDROGENASE [3]: 72 u/L
- LIPASE [3]: 10.33 u/L
- PHOSPHORUS [3]: 9.33 mg/dL
- POTASSIUM [3]: 5.54 MEQ/L
- SODIUM [3]: 144.67 MEQ/L
- TOTAL BILIRUBIN [3]: 0.2 mg/dL
- TOTAL PROTEIN [3]: 5.43 G/DL
- URIC ACID [3]: 0.37 mg/dL
- ABSOLUTE BASOPHIL [4]: 0 CELLS/uL
- ABSOLUTE EOSINOPHIL [4]: 0 CELLS/uL
- ABSOLUTE LYMPHOCYTE [4]: 8287 CELLS/uL
- ABSOLUTE MONOCYTE [4]: 65 CELLS/uL
- ABSOLUTE SEGMENTED NEUTROPHIL [4]: 1548 CELLS/uL
- BASOPHIL [4]: 0%
- EOSINOPHIL [4]: 0%
- ERYTHROCYTE COUNT [4]: 4.93 x10E6/uL
- HEMATOCRIT [4]: 31.57%
- HEMOGLOBIN [4]: 12.13 G/DL
- LEUKOCYTE COUNT [4]: 9.9 x10E3/uL
- LYMPHOCYTE [4]: 84%
- MEAN CORPUSCULAR HEMOGLOBIN [4]: 24.67 pg
- MEAN CORPUSCULAR HEMOGLOBIN CONCENTRATION [4]: 38.43 G/DL
- MEAN CORPUSCULAR VOLUME [4]: 64.13 fL
- MONOCYTE [4]: 1%
- NEUTROPHIL [4]: 15%
- NUCLEATED RED BLOOD CELLS [4]: 0.33 /100WBC
- PLATELET COUNT [4]: 1213.67 x10E3/uL
- ALANINE AMINOTRANSFERASE [4]: 61.33 u/L
- ALBUMIN [4]: 3.83 G/DL
- ALKALINE PHOSPHATASE [4]: 296.67 u/L
- ASPARTATE AMINOTRANSFERASE [4]: 87.33 u/L
- BLOOD UREA NITROGEN [4]: 17 mg/dL
- CARBON DIOXIDE [4]: 33 mmol/L
- CHLORIDE [4]: 98.5 MEQ/L
- CHOLESTEROL [4]: 69.67 mg/dL
- CREATINE PHOSPHOKINASE [4]: 277.33 u/L
- CREATININE [4]: 0.12 mg/dL
- GLUCOSE [4]: 143.33 mg/dL
- LACTATE DEHYDROGENASE [4]: 87.67 u/L
- LIPASE [4]: 11.67 u/L
- PHOSPHORUS [4]: 10.4 mg/dL
- POTASSIUM [4]: 5.69 MEQ/L
- SODIUM [4]: 143.35 MEQ/L
- TOTAL BILIRUBIN [4]: 0.0667 mg/dL
- TOTAL PROTEIN [4]: 5.57 G/DL
- URIC ACID [4]: 0.43 mg/dL

— ChEMBL document CHEMBL3885881, “DrugMatrix”
